Test results taken from PMC9000575, “Solution Equilibrium Studies on Salicylidene Aminoguanidine Schiff Base Metal Complexes: Impact of the Hybridization with L-Proline on Stability, Redox Activity and Cytotoxicity” (Molecules, 2022).
Values after ≈ are worked out from the molar mass of the structure shown.

Legend:
Assay type in all cases: physicochemical
[1] = proton dissociation constants by pH-potentiometry; conditions: for pK1 (H3L2+) / pK2 (H2L+) / pK3 (HL): Pro-SISC-Me; for pK1 (H3L2+) / pK2 (H2L+) / pK3 (HL) / pK1 (H2L+) / pK2 (HL): pH-pot.; for fraction present as H2L+ at pH 7.4 / fraction present as HL at pH 7.4: based on the pKa values; for fraction present as HL at pH 7.4: HL neutral (zwitter ionic for Pro-SISC-Me); for pK1 (H2L+) / pK2 (HL): SISC
Description: The pH-potentiometric measurements for the determination of the proton dissociation constants of the ligands and the overall stability constants of the metal complexes were carried out at 25.0 ± 0.1 °C in water or in 30% (v/v) DMSO/H2O as solvent and at an ionic strength of 0.10 M (KCl). The titrations were performed with carbonate-free KOH solution of known concentration (0.10 M). The concentrations of the base and the HCl were determined by pH-potentiometric titrations. An Orion 710A pH-meter equipped with a Metrohm combined electrode (type 6.0234.100), and a Metrohm 665 Dosimat burette were used for the titrations. […] The average water ionization constant pKw was 13.76 ± 0.05 (water) or 14.52 ± 0.05 (30% (v/v) DMSO/H2O). The pH-potentiometric titrations were performed in the pH range 2.0–12.5. The initial volume of the samples was 10.0 mL. The ligand concentration was 2 mM and metal ion-to-ligand ratios of 1:1–1:3 were used. The accepted fitting of the titration curves was always less than 0.01 mL. Argon was always passed over the solutions during the titrations. The exact concentration of the ligand stock solutions together with the proton dissociation constants were determined by pH-potentiometric titrations with the use of the computer program HYPERQUAD [44]. It was also utilized to establish the stoichiometry of the complexes and to calculate the stability constants (β(MpLqHr)). β(MpLqHr) is defined for the general equilibrium pM + qL + rH ⇋ MpLqHr as β(MpLqHr) = [MpLqHr]/[M]^p[L]^q[H]^r, where M denotes the metal ion and L the completely deprotonated ligand. In all calculations exclusively, titration data were used from experiments in which no precipitate was visible in the reaction mixture.

[2] = thermodynamic solubility at pH 7.4; conditions: 10 mM HEPES buffer, aqueous buffer, thermodynamic from solid, pH 7.4, T = 25 °C, read-out: thermodynamic solubility at pH 7.4 (S7.4)
[3] = stability constants of Cu(II) complexes from deconvolution of EPR spectra; conditions: water, room temperature, I = 0.10 M (KCl)
Description: All EPR spectra were recorded with a BRUKER EleXsys E500 spectrometer (microwave frequency 9.54 GHz, microwave power 13 mW, modulation amplitude 5 G, modulation frequency 100 kHz, Bruker BioSpin Corporation, Billerica, MA, USA) at 77 K for the Cu(II)—SISC complexes and at room temperature for the Cu(II)—Pro-SISC-Me species. EPR spectra were recorded at different pH values at two metal-to-ligand concentration ratios: 0.25 mM Cu(II) and 0.25 mM or 0.50 mM SISC in 30% DMSO/water solution, and 1.0 mM Pro-SISC-Me and 1.0 mM or 0.5 mM Cu(II) in water. The ionic strength was adjusted with KCl (I = 0.1 M). KOH solution was added to the stock solution to change the pH between pH = 2.5–12.5, which was measured with a Radiometer PHM240 pH/ion Meter equipped with a Metrohm 6.0234.100 glass electrode. The isotropic EPR spectra were recorded at room temperature in a circulating system, and a Heidolph Pumpdrive 5101 peristaltic pump was used to circulate the solution from the titration vessel through a capillary tube into the cavity of the instrument. For the anisotropic EPR spectra, a pH titration was performed outside of the cavity and at selected pH values, and 200 μL samples were transferred from the titration vessel into EPR tubes and the spectra were recorded in a Dewar containing liquid nitrogen.
The anisotropic EPR spectra were analyzed with the EPR program. […]

| SMILES | pK1 (H3L2+) ([1]; 30% DMSO/H2O) | pK2 (H2L+) ([1]; 30% DMSO/H2O) | pK3 (HL) ([1]; 30% DMSO/H2O) | pK1 (H3L2+) ([1]; H2O, 25 °C, I = 0.10 M (KCl)) | pK2 (H2L+) ([1]; H2O, 25 °C, I = 0.10 M (KCl)) | pK3 (HL) ([1]; H2O, 25 °C, I = 0.10 M (KCl)) | fraction present as H2L+ at pH 7.4 [1] [%] | fraction present as HL at pH 7.4 [1] [%] | solubility thermodynamic [2] [mM] | logβ [CuLH−1] [3] | logβ [CuL]+ [3] | pK1 (H2L+) ([1]; 30% DMSO/H2O) | pK2 (HL) ([1]; 30% DMSO/H2O) | pK1 (H2L+) ([1]; H2O, 25 °C, I = 0.10 M (KCl)) | pK2 (HL) ([1]; H2O, 25 °C, I = 0.10 M (KCl)) |
| --- | --- | --- | --- | --- | --- | --- | --- | --- | --- | --- | --- | --- | --- | --- | --- |
| Cc1cc(C=NNC(=N)N)c(O)c(CN2CCCC2C(=O)O)c1 (stereo not drawn) [Pro-SISC-Me] | 1.80 ± 0.08 | 7.08 ± 0.02 | 9.91 ± 0.02 | 2.52 ± 0.08 | 7.25 ± 0.06 | 9.61 ± 0.05 | 33 | 67 | ~10 (≈ 3190 µg/mL) | 6.50 | 14.78 | – | – | – | – |
| N=C(N)NN=Cc1ccccc1O [SISC, 2-(2-hydroxybenzylidene)hydrazinecarboximidamide] | – | – | – | – | – | – | 64 | 36 | ~2 (≈ 356 µg/mL) | – | – | 7.62 ± 0.03 | 10.63 ± 0.02 | 7.64 ± 0.09 | 9.96 ± 0.09 |
